Measurements published in patent publication EP1561465A2, “Methods of use of fluoroquinolone compounds against bacteria” (LG Life Sciences, Ltd., priority 1999, dated 2001).
Converted amounts (≈) assume the structure as drawn. Where two headings read alike, the source gives them in different places.

Experiments:
Format in all cases: cell-based
Moraxella catarrhalis = assay: MIC by agar dilution (NCCLS), 411 isolates Buenos Aires 1998-99
K. pneumoniae = assay: MIC and MBC by microdilution in Mueller-Hinton broth, uropathogens
Experimental: (§1) MICs and MBCs were determined by a microdilution method with Mueller-Hinton broth. An inoculum of 1.3-9.4 x 10^5 colony forming units (CFU) per ml was used.
(§2) Strains included a reference strain E. coli ATCC 25922, susceptible to nalidixic acid (Nal-S) and the following clinical isolates obtained from complicated UTI patients: E. coli (resistant to nalidixic acid), K. pneumoniae, P. mirabilis , P. aeruginosa, […] (3 strains) and Enterococcus faecalis (2 strains).

E. faecalis [1] = assay: as above; settings: Enterococcus faecalis
Experimental: as §1, §2

P. mirabilis = assay: as above
Experimental: as §1, §2

P. aeruginosa [2] = assay: as above
Experimental: as §1, §2

E. coli = assay: as above
Experimental: as §1, §2

E. faecalis [3] = assay: Urinary bactericidal titers (UBT) and AUBTC of volunteers' urine; settings: urine after gemifloxacin 320 mg or ofloxacin 400 mg
Yersinia enterocolitica = assay: MIC by agar dilution (NCCLS M7-A4), 288 enteropathogenic isolates, eight quinolones; settings: Yersinia enterocolitica (n = 22)
P. aeruginosa [4] = assay: Urinary bactericidal titers (UBT) and AUBTC of volunteers' urine; settings: P. aeruginosa (16) Laboratory No. 568; urine after gemifloxacin 320 mg or ofloxacin 400 mg
Salmonella spp. = assay: MIC by agar dilution (NCCLS M7-A4), 288 enteropathogenic isolates, gemifloxacin and 15 other antimicrobials
[5] = E. faecalis Laboratory No. 55, inoculum 6.0 CFU 10^5/ml
[6] = E. faecalis Laboratory No. 60, inoculum 7.0 CFU 10^5/ml

CC1COc2c(N3CCN(C)CC3)c(F)cc3c(=O)c(C(=O)O)cn1c23 (stereo not drawn) [Ofloxacin, ofloxacin]
MIC90 (Moraxella catarrhalis; Moraxella catarrhalis): 0.125 µg/mL (≈ 0.346 µM) | MIC Range (Moraxella catarrhalis; Moraxella catarrhalis (n = 59)): 0.06 to 0.125 µg/mL | MIC (K. pneumoniae; K. pneumoniae Laboratory No. 595, inoculum 3.7 CFU 10^5/ml): 0.06 µg/mL (≈ 0.166 µM) | MBC (K. pneumoniae; Klebsiella pneumoniae, K. pneumoniae Laboratory No. 595, inoculum 3.7 CFU 10^5/ml): 0.06 µg/mL (≈ 0.166 µM) | MIC (K. pneumoniae; Klebsiella pneumoniae, K. pneumoniae clinical isolate, read-out: MIC): 0.06 µg/mL (≈ 0.166 µM) | MBC (E. faecalis [1]; [5]): 128 µg/mL (≈ 354 µM) | MIC (E. faecalis [1]; [5]): 32 µg/mL (≈ 88.6 µM) | MBC (E. faecalis [1]; [6]): 2 µg/mL (≈ 5.53 µM) | MIC (E. faecalis [1]; [6]): 2 µg/mL (≈ 5.53 µM) | MIC (E. faecalis [1]; E. faecalis isolate (0.06/2)): 2 µg/mL (≈ 5.53 µM) | MIC (E. faecalis [1]; E. faecalis isolate (0.5/32)): 32 µg/mL (≈ 88.6 µM) | MIC (P. mirabilis; P. mirabilis Laboratory No. 414, inoculum 2.5 CFU 10^5/ml): 0.125 µg/mL (≈ 0.346 µM) | MIC (P. mirabilis; Proteus mirabilis): 0.125 µg/mL (≈ 0.346 µM) | MBC (P. mirabilis; Proteus mirabilis, P. mirabilis Laboratory No. 414, inoculum 2.5 CFU 10^5/ml): 0.125 µg/mL (≈ 0.346 µM) | MIC (P. aeruginosa [2]; P. aeruginosa Laboratory No. 568, inoculum 5.6 CFU 10^5/ml): 4 µg/mL (≈ 11.1 µM) | MBC (P. aeruginosa [2]; Pseudomonas aeruginosa, P. aeruginosa Laboratory No. 568, inoculum 5.6 CFU 10^5/ml): 4 µg/mL (≈ 11.1 µM) | MIC (P. aeruginosa [2]; Pseudomonas aeruginosa, P. aeruginosa clinical isolate, read-out: MIC): 4 µg/mL (≈ 11.1 µM) | MIC (E. coli; E. coli ATCC 25922, inoculum 1.3 CFU 10^5/ml): 0.06 µg/mL (≈ 0.166 µM) | MIC (E. coli; E. coli Laboratory No. 523, inoculum 3.4 CFU 10^5/ml): 0.5 µg/mL (≈ 1.38 µM) | MIC (E. coli; Escherichia coli, ATCC25922, E. coli ATCC 25922 (reference strain), read-out: MIC): 0.06 µg/mL (≈ 0.166 µM) | MBC (E. coli; Escherichia coli, ATCC25922, E. coli ATCC 25922, inoculum 1.3 CFU 10^5/ml): 0.06 µg/mL (≈ 0.166 µM) | MBC (E. coli; Escherichia coli, E. coli Laboratory No. 523, inoculum 3.4 CFU 10^5/ml): 0.5 µg/mL (≈ 1.38 µM) | MIC (E. coli; Escherichia coli, E. coli clinical isolate (0.06/0.5), read-out: MIC): 0.5 µg/mL (≈ 1.38 µM) | AUBTC (range) (E. faecalis [3]; E. faecalis (13) Laboratory No. 55): 0 (0-54) | AUBTC (range) (E. faecalis [3]; E. faecalis (16) Laboratory No. 60): 135 (90-204) | % Susceptible (Yersinia enterocolitica): 100% | MIC50 (Yersinia enterocolitica): 0.12 µg/mL (≈ 0.332 µM) | MIC90 (Yersinia enterocolitica): 0.12 µg/mL (≈ 0.332 µM) | MIC Range (Yersinia enterocolitica): 0.03 to 0.5 µg/mL | AUBTC (range) (P. aeruginosa [4]): 99 (42-258) | MIC (Salmonella spp.; S. hadar(2), isolates with MICs for ciprofloxacin ≥[…], read-out: MIC): 2 mg/L (≈ 5.53 µM) | MIC (Salmonella spp.; S. newport(1), isolate with MIC for ciprofloxacin ≥[…], read-out: MIC): 2 mg/L (≈ 5.53 µM) | MIC (mg/L) Range (Salmonella spp.; Salmonella spp. N= 106): 0.06 to 2 mg/L | MIC (Salmonella spp.; Salmonella, S. tshiongwe(1), isolate with MIC for ciprofloxacin ≥[…], read-out: MIC): 2 mg/L (≈ 5.53 µM) | MIC (Salmonella spp.; Salmonella, read-out: MIC (mg/L) 50%, Salmonella spp. N= 106): 0.12 mg/L (≈ 0.332 µM) | MIC (Salmonella spp.; Salmonella, read-out: MIC (mg/L) 90%, Salmonella spp. N= 106): 0.5 mg/L (≈ 1.38 µM)
